Laboratory results taken from US12435051B2, “Dual modulator of mGluR5 and 5-HT2A receptor, and use thereof” (Vivozon Inc., priority 2020, dated 2025).

Target: T1, human 5-HT2AR (Homo sapiens, UniProt P28223)
T1 construct: expressed in transfected cells; host or cells: HEK293
Test: HTRF-based IP1 accumulation assay (5-HT2AR antagonistic effect)
Format: cell-based
Details: HEK293 cells overexpressing human 5-HT2AR; serotonin at EC80
Outline: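 HEK293 cells stably overexpressing human 5-HT2AR were pre-incubated with compound (top 10 μM, serial dilutions, LiCl buffer) 10 min at room temperature, then stimulated with EC80 serotonin 30 min at 37 °C. IP1 accumulation was read by HTRF; IC50s came from activity normalized to serotonin and IP1 controls.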

T1 sequence (P28223 whole entry): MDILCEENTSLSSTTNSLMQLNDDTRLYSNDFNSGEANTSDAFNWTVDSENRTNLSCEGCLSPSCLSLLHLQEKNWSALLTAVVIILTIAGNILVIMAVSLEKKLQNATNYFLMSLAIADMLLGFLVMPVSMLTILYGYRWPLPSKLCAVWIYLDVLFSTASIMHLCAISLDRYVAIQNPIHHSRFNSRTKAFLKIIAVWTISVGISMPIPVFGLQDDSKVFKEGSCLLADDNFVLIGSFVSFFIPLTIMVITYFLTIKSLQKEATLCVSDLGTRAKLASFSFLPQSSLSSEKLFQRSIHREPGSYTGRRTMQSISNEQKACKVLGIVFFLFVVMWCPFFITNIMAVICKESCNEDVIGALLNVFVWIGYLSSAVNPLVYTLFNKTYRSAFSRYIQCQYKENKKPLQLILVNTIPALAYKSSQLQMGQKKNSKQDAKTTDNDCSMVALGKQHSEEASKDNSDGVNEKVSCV

Structure (SMILES) | IC50 [nM]
COC1(CNC(=O)c2ccc(C#Cc3ccccc3F)cc2)CCCCC1 [Example 65, 4-((2-fluorophenyl)ethynyl)-N-((1-methoxycyclohexyl)methyl)benzamide] | 500 to 1000
COC1(CNC(=O)c2ccc(C#Cc3ccccc3F)cc2)CCOCC1 [Example 66, 4-((2-fluorophenyl)ethynyl)-N-((4-methoxytetrahydro-2H-pyran-4-yl)methyl)benzamide] | 500 to 1000
O=C(NC[C@H]1CCOC1)c1ccc(C#Cc2ccccc2F)cc1 [Example 69, (R)-4-((2-fluorophenyl)ethynyl)-N-((tetrahydrofuran-3-yl)methyl)benzamide] | 500 to 1000
O=C(NCC1(O)COC1)c1ccc(C#Cc2ccccc2F)cc1 [Example 82, 4-((2-fluorophenyl)ethynyl)-N-((3-hydroxyoxetan-3-yl)methyl)benzamide] | 500 to 1000

Further lines, results first:

IC50 [nM] | Structure (SMILES)
100 to 500 | O=C(NCC1CCO1)c1ccc(C#Cc2ccccc2F)cc1 (centres unmarked) [Example 58, 4-((2-fluorophenyl)ethynyl)-N-(oxetan-2-ylmethyl)benzamide]
100 to 500 | O=C(NCC1CCCCC1O)c1ccc(C#Cc2ccccc2F)cc1 (centres unmarked) [Example 63, 4-((2-fluorophenyl)ethynyl)-N-((2-hydroxycyclohexyl)methyl)benzamide]
500 to 1000 | O=C(NCC1CCCC(O)C1)c1ccc(C#Cc2ccccc2F)cc1 (centres unmarked) [Example 64, 4-((2-fluorophenyl)ethynyl)-N-((3-hydroxycyclohexyl)methyl)benzamide]
100 to 500 | CCC1(CNC(=O)c2ccc(C#Cc3ccccc3F)cc2)COC1 [Example 72, N-((3-ethyloxetan-3-yl)methyl)-4-((2-fluorophenyl)ethynyl)benzamide]

Target: T2, mGluR5 (Homo sapiens, UniProt P41594)
T2 construct: expressed in transfected cells; host or cells: HEK293
T2 sequence (P41594 21-1212): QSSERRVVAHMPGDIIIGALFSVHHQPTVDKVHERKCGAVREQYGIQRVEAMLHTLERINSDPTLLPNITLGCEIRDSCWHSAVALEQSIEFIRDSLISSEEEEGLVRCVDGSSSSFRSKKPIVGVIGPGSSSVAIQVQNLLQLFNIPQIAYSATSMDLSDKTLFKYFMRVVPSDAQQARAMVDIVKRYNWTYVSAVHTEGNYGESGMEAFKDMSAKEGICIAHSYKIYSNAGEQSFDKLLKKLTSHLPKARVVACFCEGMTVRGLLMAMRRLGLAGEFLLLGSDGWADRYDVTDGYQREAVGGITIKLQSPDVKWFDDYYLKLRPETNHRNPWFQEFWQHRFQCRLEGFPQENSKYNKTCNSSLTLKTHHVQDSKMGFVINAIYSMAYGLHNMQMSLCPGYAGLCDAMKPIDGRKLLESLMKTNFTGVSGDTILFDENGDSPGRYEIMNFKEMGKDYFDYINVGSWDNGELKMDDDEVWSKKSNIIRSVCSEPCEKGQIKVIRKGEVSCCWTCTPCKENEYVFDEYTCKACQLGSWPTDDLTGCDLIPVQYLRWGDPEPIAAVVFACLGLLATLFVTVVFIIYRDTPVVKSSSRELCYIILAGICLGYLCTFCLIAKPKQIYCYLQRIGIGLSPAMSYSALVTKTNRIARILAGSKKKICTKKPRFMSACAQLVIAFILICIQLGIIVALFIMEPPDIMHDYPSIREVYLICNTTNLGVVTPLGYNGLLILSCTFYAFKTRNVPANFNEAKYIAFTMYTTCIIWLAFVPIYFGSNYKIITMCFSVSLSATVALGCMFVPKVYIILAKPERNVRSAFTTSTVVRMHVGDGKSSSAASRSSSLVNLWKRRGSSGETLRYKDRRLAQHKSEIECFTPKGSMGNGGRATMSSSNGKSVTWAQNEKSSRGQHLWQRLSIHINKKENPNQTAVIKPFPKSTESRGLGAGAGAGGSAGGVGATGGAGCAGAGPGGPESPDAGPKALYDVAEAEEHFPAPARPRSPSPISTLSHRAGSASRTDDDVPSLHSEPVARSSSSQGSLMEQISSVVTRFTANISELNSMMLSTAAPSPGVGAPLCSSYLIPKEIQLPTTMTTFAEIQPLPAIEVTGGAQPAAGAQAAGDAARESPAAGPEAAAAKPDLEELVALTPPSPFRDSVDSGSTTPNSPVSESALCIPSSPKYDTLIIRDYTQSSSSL
Test: Fluorescence-based Ca2+ mobilization assay
Format: cell-based
Details: HEK293 cells overexpressing mGluR5; L-glutamate at EC80
Outline: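 HEK293 cells stably overexpressing mGluR5, dye-loaded 60 min at 37 °C, then preincubated with compound 30 min at room temperature in the dark. Ca2+ response to L-glutamate at EC80 read on FLIPR for 2 min. Signal normalised to glutamate (100%) and vehicle (0%); IC50 from % inhibition.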

Structure (SMILES) | IC50 [nM]
COC1(CNC(=O)c2ccc(C#Cc3ccccc3F)cc2)CCCCC1 [Example 65, 4-((2-fluorophenyl)ethynyl)-N-((1-methoxycyclohexyl)methyl)benzamide] | < 100
COC1(CNC(=O)c2ccc(C#Cc3ccccc3F)cc2)CCOCC1 [Example 66, 4-((2-fluorophenyl)ethynyl)-N-((4-methoxytetrahydro-2H-pyran-4-yl)methyl)benzamide] | < 100
O=C(NC[C@H]1CCOC1)c1ccc(C#Cc2ccccc2F)cc1 [Example 69, (R)-4-((2-fluorophenyl)ethynyl)-N-((tetrahydrofuran-3-yl)methyl)benzamide] | 100 to 500
O=C(NCC1(O)COC1)c1ccc(C#Cc2ccccc2F)cc1 [Example 82, 4-((2-fluorophenyl)ethynyl)-N-((3-hydroxyoxetan-3-yl)methyl)benzamide] | 500 to 1000

Next, values leading:

IC50 [nM] | Structure (SMILES)
100 to 500 | O=C(NCC1CCO1)c1ccc(C#Cc2ccccc2F)cc1 (centres unmarked) [Example 58, 4-((2-fluorophenyl)ethynyl)-N-(oxetan-2-ylmethyl)benzamide]
< 100 | O=C(NCC1CCCCC1O)c1ccc(C#Cc2ccccc2F)cc1 (centres unmarked) [Example 63, 4-((2-fluorophenyl)ethynyl)-N-((2-hydroxycyclohexyl)methyl)benzamide]
< 100 | O=C(NCC1CCCC(O)C1)c1ccc(C#Cc2ccccc2F)cc1 (centres unmarked) [Example 64, 4-((2-fluorophenyl)ethynyl)-N-((3-hydroxycyclohexyl)methyl)benzamide]
< 100 | CCC1(CNC(=O)c2ccc(C#Cc3ccccc3F)cc2)COC1 [Example 72, N-((3-ethyloxetan-3-yl)methyl)-4-((2-fluorophenyl)ethynyl)benzamide]

System: physical (tactile) allodynia in spinal nerve ligation model
Test: Analgesic efficacy experiment using animal model (Chung model, spinal nerve ligation)
Format: in vivo, Sprague-Dawley rats
Details: Rattus norvegicus, po, 1 h, read-out: % reversal (1 h)
Protocol: The Chung model (spinal nerve ligation model) is a representative animal model to study neuropathic pain and is widely accepted as a gold standard for an animal pain model by global pharmaceutical companies around the world.
In this experiment, male Sprague-Dawley rats (100-120 g) purchased from Koatech (Pyeongtaek-si, Gyeonggi-do) were used. Rats were kept in a room maintained at constant temperature and humidity with a 12 hour light-dark cycle. Rats were allowed to eat and drink freely during the experiment.
For the Chung surgery, rats were anesthetized by isoflurane inhalation and the left lumbar nerves L5 and L6 were tightly tied with a suture thread (6-0 silk thread) at the end of the dorsal ganglion and at a front of an entrance to the sciatic nerve according to the article (Kim and Chung (1992), Pain 50(3):355-63). After suturing the incision, the rats were recovered for 2 weeks in the controlled maintenance room to induce physical allodynia in the left hind paw of the rat. To measure physical (tactile) allodynia, the rats were placed in a cage with a wire mesh on the bottom. Stimuli of increasing intensity (using the von Frey filaments in a range of 0.41 to 15.8 g) were placed on the plantar surface on the side of the nerve injury. The stimulus intensity at which the pain response (abrupt lifting, licking or sucking of the foot) was induced was recorded while applying gradual increment of stimuli. As described in the study of Chaplan et al. (1994) (Chaplan et al. (1994) J. Neurosci. Methods 53(1):55-63), the paw withdrawal threshold (PWT) was determined by increasing or decreasing continuous stimulus intensity, and the result was analyzed by applying Dixon's up-down method. Only rats showing no behavior dysfunction (e.g., feet dragging or dropping) were selected and included in the study, and the PWT of the rats used was 3.16 g or less.
After measuring the degree of basic reaction before drug injection, each compound and solvent were injected by oral administration (12.5-100 mg/kg), and the measurement was repeated at regular time intervals (60 and 120 minutes) after the drug was injected.
The experimenter conducted the PWT measurement in a blind condition not knowing which rat was administered with which drug. The control group was administered with gabapentin (65 mg/kg, intraperitoneal administration), and was randomly mixed during the measurement. Statistical analysis was performed on the measured pain response threshold by calculating the reversal rate (% reversal) from pain in Equation 1 below. […] Pain reversal rate (% reversal)=[(PWT after drug administration)−(PWT before drug administration)]*100/[(15 g, Estimated PWT in normal animals)−(PWT before drug administration)] [Equation 1]
The PWT used in this time is a value obtained by multiplying the gram, the unit of “force” measure, by 10,000, and taking the logarithm, which is a method generally used in academia.
Each experiment consisted of the compound group, the solvent group of the compound and the gabapentin (GBP) group as positive control group. As solvent of the compound, 0.5% HPMC (hydroxypropylmethyl cellulose) was used.

Structure (SMILES) | inhibition in vivo at 50 mg/kg [%]
COC1(CNC(=O)c2ccc(C#Cc3ccccc3F)cc2)CCCCC1 [Example 65, 4-((2-fluorophenyl)ethynyl)-N-((1-methoxycyclohexyl)methyl)benzamide] | 34
O=C(NC[C@H]1CCOC1)c1ccc(C#Cc2ccccc2F)cc1 [Example 69, (R)-4-((2-fluorophenyl)ethynyl)-N-((tetrahydrofuran-3-yl)methyl)benzamide] | 110

Same assay, conditions: Rattus norvegicus, po, 2 h, read-out: % reversal (2 h)

Structure (SMILES) | inhibition in vivo at 50 mg/kg [%]
COC1(CNC(=O)c2ccc(C#Cc3ccccc3F)cc2)CCCCC1 [Example 65, 4-((2-fluorophenyl)ethynyl)-N-((1-methoxycyclohexyl)methyl)benzamide] | 80.8
O=C(NC[C@H]1CCOC1)c1ccc(C#Cc2ccccc2F)cc1 [Example 69, (R)-4-((2-fluorophenyl)ethynyl)-N-((tetrahydrofuran-3-yl)methyl)benzamide] | 110

Same assay, conditions: rat, oral, 25 mpk, 1 h; read-out: % reversal (1 h)

Structure (SMILES) | inhibition in vivo at 25 mg/kg [%]
O=C(NCC1CCO1)c1ccc(C#Cc2ccccc2F)cc1 (centres unmarked) [Example 58, 4-((2-fluorophenyl)ethynyl)-N-(oxetan-2-ylmethyl)benzamide] | 61.5
COC1(CNC(=O)c2ccc(C#Cc3ccccc3F)cc2)CCOCC1 [Example 66, 4-((2-fluorophenyl)ethynyl)-N-((4-methoxytetrahydro-2H-pyran-4-yl)methyl)benzamide] | 64.1

Same assay, conditions: rat, oral, 25 mpk, 2 h; read-out: % reversal (2 h)

Structure (SMILES) | inhibition in vivo at 25 mg/kg [%]
O=C(NCC1CCO1)c1ccc(C#Cc2ccccc2F)cc1 (centres unmarked) [Example 58, 4-((2-fluorophenyl)ethynyl)-N-(oxetan-2-ylmethyl)benzamide] | 28.3
COC1(CNC(=O)c2ccc(C#Cc3ccccc3F)cc2)CCOCC1 [Example 66, 4-((2-fluorophenyl)ethynyl)-N-((4-methoxytetrahydro-2H-pyran-4-yl)methyl)benzamide] | 43.2

Same assay, conditions: rat, oral, 50 mpk, 1 h; read-out: % reversal (1 h)

Structure (SMILES) | inhibition in vivo at 50 mg/kg [%]
O=C(NCC1CCCCC1O)c1ccc(C#Cc2ccccc2F)cc1 (centres unmarked) [Example 63, 4-((2-fluorophenyl)ethynyl)-N-((2-hydroxycyclohexyl)methyl)benzamide] | 70.9
O=C(NCC1CCCC(O)C1)c1ccc(C#Cc2ccccc2F)cc1 (centres unmarked) [Example 64, 4-((2-fluorophenyl)ethynyl)-N-((3-hydroxycyclohexyl)methyl)benzamide] | 10.4
CCC1(CNC(=O)c2ccc(C#Cc3ccccc3F)cc2)COC1 [Example 72, N-((3-ethyloxetan-3-yl)methyl)-4-((2-fluorophenyl)ethynyl)benzamide] | 41.9
O=C(NCC1(O)COC1)c1ccc(C#Cc2ccccc2F)cc1 [Example 82, 4-((2-fluorophenyl)ethynyl)-N-((3-hydroxyoxetan-3-yl)methyl)benzamide] | 70.3

Same assay, conditions: rat, oral, 50 mpk, 2 h; read-out: % reversal (2 h)

Structure (SMILES) | inhibition in vivo at 50 mg/kg [%]
O=C(NCC1CCCCC1O)c1ccc(C#Cc2ccccc2F)cc1 (centres unmarked) [Example 63, 4-((2-fluorophenyl)ethynyl)-N-((2-hydroxycyclohexyl)methyl)benzamide] | 42.1
O=C(NCC1CCCC(O)C1)c1ccc(C#Cc2ccccc2F)cc1 (centres unmarked) [Example 64, 4-((2-fluorophenyl)ethynyl)-N-((3-hydroxycyclohexyl)methyl)benzamide] | 45.2
CCC1(CNC(=O)c2ccc(C#Cc3ccccc3F)cc2)COC1 [Example 72, N-((3-ethyloxetan-3-yl)methyl)-4-((2-fluorophenyl)ethynyl)benzamide] | 71.8
O=C(NCC1(O)COC1)c1ccc(C#Cc2ccccc2F)cc1 [Example 82, 4-((2-fluorophenyl)ethynyl)-N-((3-hydroxyoxetan-3-yl)methyl)benzamide] | 89.1
